Read-outs that look alike come from different tables or passages of the source.
How the values were obtained:
[1] = cited from earlier work
[2] = radioimmunoassay after applying an aqueous solution to skin; cited from earlier work
[3] = Bioavailability and pharmacokinetics of sodium cromoglycate from the literature; assay type: in vivo, human; settings: oral, maximum administered dose of 2800 mg in a 70 kg person
Method: Urinary levels over time are probably a better measure of bioavailability.
Thus the maximum administered topical daily dose is expected to be 800 mg.

[4] = tested on: antigen induced wheal and flare reaction in the skin; settings: cited from earlier work
[5] = cited from earlier work; remark: listed apart in the source

## O=C([O-])c1cc(=O)c2c(OCC(O)COc3cccc4oc(C(=O)[O-])cc(=O)c34)cccc2o1.[Na+].[Na+] [sodium cromoglycate, disodium 5,5′-[(2-hydroxytrimethylene)dioxy]bis-[4-oxo-4H-1-benzopyran-2-carboxylate]]
[1]; in vivo
  metabolism: not metabolised
  removal from the blood: rapidly removed
[1]; oral, food allergy
  bioavailability: 1%
[2]
  sodium cromoglycate in the blood: unable to detect
[3]
  absorbed dose: 28 mg
[4]; 3 days pretreatment versus single dose immediately preceding skin prick testing
  dependence of effect on pretreatment: significant effect is observed only after pretreatment
[4]; topical, human subjects
  effect on antigen induced wheal and flare reaction: inhibits
[5]; clinical practice, generally transient
  main adverse effects: headache, dizziness, local irritation of the target organ and an unpleasant taste in the mouth
[5]; eye drops
  adverse effects: burning and stinging
[5]; intra-nasal administration
  adverse effects: epistaxis
[5]; oral administration
  adverse effects: nausea, skin rash and joint pain

From US7109246B1, “Pharmaceutical compositions comprising an amphoteric surfactant an alkoxylated cetyl alcohol and a polar drug” (Hewlett Healthcare Ltd, priority 1998, dated 2006)
